The test system of series [1] is P. vivax clinical field isolates. In words: microbe, parasite or virus in culture. The class given is cell-based. The conditions noted are these: Plasmodium vivax, read-out: Median IC50.
In series [2] the test system is P. falciparum clinical field isolates. In words: microbe, parasite or virus in culture. The class given is cell-based. The conditions noted are these: Plasmodium falciparum, read-out: Median IC50.
Series [3] has as its system P. falciparum lab lines FC27 and K1. In words: microbe, parasite or virus in culture. The conditions noted are these: Plasmodium falciparum, median of 3 independent experiments. The series is classed as cell-based.
Series [4] relates to P. falciparum strain 3D7A. Further details: method as in PMID 22383983. The conditions noted are these: cited from earlier work.
The subject of series [5] is P. falciparum strains (sensitive and resistant). In words: microbe, parasite or virus in culture. The series is classed as cell-based. The conditions noted are these: Plasmodium falciparum, mean ± SD n=3.
Series [6] is described as follows: In vitro intrinsic clearance, rat liver microsomes (Chem Partners). The class given is in vitro ADME. The conditions noted are these: rat (R) liver microsomes.
A short description of series [7]: Rat blood stability in vitro. The conditions noted are these: male, Sprague Dawley, freshly collected whole blood.
The nature of series [8]: Rat PK iv 1 mg/kg (Chem Partners). The conditions noted are these: in vivo.
The subject of another series is P. falciparum 3D7. In words: In vitro antimalarial activity, drug sensitivity testing (3D7). The series is classed as cell-based. The conditions noted are these: Plasmodium falciparum.
Series [9] is described as follows: In vitro intrinsic clearance, human liver microsomes (Chem Partners). The class given is in vitro ADME. The conditions noted are these: human (H) liver microsomes. A general note: Liver microsomes are vesicles of endoplasmic reticulum, rich in cytochrome P450 enzymes.
In a further series the test system is P. berghei. Further details: species or system Plasmodium berghei.
Series [10] can be described thus: Metabolic stability and metabolite profile in mouse liver microsomes. The series is classed as in vitro ADME. The conditions noted are these: for Relative Peak Area (expressed as % total metabolite peak area generated over 60 minutes): metabolite of E209, mouse liver microsomes with NADPH; for Degradation half-life / In vitro CLint / Microsome-Predicted EH: mouse liver microsomes.

Series [11] in a line: Metabolic stability and metabolite profile in rat liver microsomes. The class given is in vitro ADME. The conditions noted are these: for Relative Peak Area (expressed as % total metabolite peak area generated over 60 minutes): metabolite of E209, rat liver microsomes with NADPH; for Degradation half-life / In vitro CLint / Microsome-Predicted EH: rat liver microsomes.
Series [12] can be described thus: Metabolic stability and metabolite profile in human liver microsomes. The conditions noted are these: for Relative Peak Area (expressed as % total metabolite peak area generated over 60 minutes): metabolite of E209, human liver microsomes with NADPH; for In vitro CLint / Microsome-Predicted EH / Degradation half-life: human liver microsomes.
A short description of series [13]: Solubility at 37°C over a 6 hour incubation. The class given is physicochemical. The conditions noted are these: free base equivalent.
[14] abbreviates: 10 × IC50, previous results on standard anti-malarials.

Values joined by “and” are separate entries in the source; they are usually repeats but may differ in a detail not shown here. Equal entries are not always repeated. Where two headings read alike, the source gives them in different places.

One may read the IC50 as the concentration at which inhibition is half-maximal. As a reminder, the CLint scaled is a measure of how fast metabolising enzymes remove a compound, apart from limits set by blood flow. Broadly, the half-life is how long it takes for the measured level to halve. As a reminder, the clearance is a measure of how efficiently the substance is removed, as volume per time. Lower therefore signals inefficient removal. As usually defined, the Solubility is how much of the substance goes into solution per volume.

In the case of `CCN(CC)Cc1cc(Nc2ccnc3cc(Cl)ccc23)ccc1O` [Amodiaquine, amodiaquine], the IC50 in [1] is 50.6 nM; in series [2], 25.6 nM; in [3] (K1, FC27 (CQ S) lab line), 33.1 nM; in series [3] (K1, K1 (CQ R) lab line), 39.3 nM.
Consider `C[C@@H]1CC[C@H]2[C@@H](C)C(=O)O[C@@H]3O[C@@]4(C)CC[C@@H]1[C@]32OO4` [Artemisinin, artemisinin], for which, in series [4], the Lag phase is reported as 0 h, the “Log PRR” value was more than 4.8, the “PCT 99.9 %” value is reported as less than 24 h and the Slope is recorded as −0.101.
With `O=C1C(O)=C([C@H]2CC[C@H](c3ccc(Cl)cc3)CC2)C(=O)c2ccccc21` [Atovaquone, atovaquone], in series [4] (setting [14]), the Lag phase is 48 h, the “Log PRR” value is 2.9, the “PCT 99.9 %” value is recorded as 81 h and the Slope is −0.060.
Regarding `CCN(CC)CCCC(C)Nc1ccnc2cc(Cl)ccc12` (stereo not shown) [Chloroquine, chloroquine], the IC50 in [1] stood at 147 nM; in series [2] it was 85.5 nM; in series [5] (DD2, strain Dd2 (chloroquine resistant)), 150 ± 25.7 nM; in series [5] (HB3, strain HB3 (chloroquine sensitive)) it was 9 ± 1.5 nM; in [5] (NF54, strain NF54 (chloroquine sensitive)), 5.9 ± 1 nM; in [5] (TM90C2B, strain TM90C2B (chloroquine resistant)) it was 121 ± 20.6 nM. In addition, the IC50 in series [5] (strain 7G8 (chloroquine resistant)) worked out at 55 ± 9.4 nM; in [5] (strain D6 (chloroquine sensitive)), 8.6 ± 1.5 nM; in series [5] (strain FCB (chloroquine resistant)) it was 66 ± 11.3 nM; in series [5] (strain K1 (chloroquine resistant)), 173 ± 29.5 nM; in [5] (strain V1/S (chloroquine resistant)), 194 ± 33 nM; in series [3] (K1, K1 (CQ R) lab line), 212 nM. In addition, in series [4], the Lag phase is reported as 0 h. Besides, in series [4], the “PCT 99.9 %” value was 34 h. Also, the Slope in series [4] was −0.094.
With `c1cc(C2CCC3(CC2)OOC2(OO3)C3CC4CC(C3)CC2C4)ccc1OCCN1CCOCC1` (stereo not shown) [Compound 4], the CLint scaled in [6] worked out at 86 mL/min/kg. In series [7], this compound had a half-life at 1 µM of 14 h. Also, in series [8], the clearance was 7.1 mL/min/kg and the half-life was 1.1 h. In addition, in the series on P. falciparum 3D7, the IC50 was determined as 10 ± 1 nM. This compound also displayed a CLint scaled in series [9] of 135 mL/min/kg.
In series [6], `c1cc(C2CCC3(CC2)OOC2(OO3)C3CC4CC(C3)CC2C4)ccc1OCCCN1CCOCC1` (stereo not shown) [Compound 5] gave a CLint scaled of 75 mL/min/kg. Moreover, the half-life at 1 µM in series [7] was 15 h. Also, the “In vivo (Pb) MSD (days) at 1 x 30 mg/kg” value in the series with P. berghei turned out to be 16 days. For the same compound, in series [8], the clearance was 6.5 mL/min/kg and the half-life is 1.5 h. The compound further yielded an IC50 in the series on P. falciparum 3D7 of 7.5 ± 0.2 nM. In series [9], this compound returned a CLint scaled of 147 mL/min/kg.
`CS(=O)(=O)N1CCN(CCOc2ccc(C3CCC4(CC3)OOC3(OO4)C4CC5CC(C4)CC3C5)cc2)CC1` (stereo not shown) [Compound 6] returned a CLint scaled in series [6] of 38 mL/min/kg. The half-life at 1 µM in [7] is 12 h. Moreover, in the series on P. berghei, the “In vivo (Pb) MSD (days) at 1 x 30 mg/kg” value was 19 days and 19.3 (14, 30,14) days. For the same compound, in series [8], the clearance turned out to be 3.5 mL/min/kg and the half-life is 3.2 h. For the same compound, half-maximal inhibition in the series with P. falciparum 3D7 (IC50) was put at 3.5 ± 0.2 nM. For the same compound, in series [9], the CLint scaled was found to be 257 mL/min/kg.
Compound `FC1(F)CCN(CCOc2ccc(C3CCC4(CC3)OOC3(OO4)C4CC5CC(C4)CC3C5)cc2)CC1` (stereo not shown) [Compound 8] yielded a CLint scaled in series [6] of 60 mL/min/kg. The compound further gave a half-life at 1 µM in series [7] of 16 h. Moreover, in series [8], the clearance stood at 1.3 mL/min/kg and the half-life was 2.8 h. In the series with P. falciparum 3D7, this compound had an IC50 of 8.5 ± 0.6 nM. In addition, the CLint scaled in series [9] was found to be 107 mL/min/kg.
On to `OC1CCC(c2ccc(OCCN3CCC(F)CC3)cc2)CC1` (stereo not shown) [Compound M-180], for which the “Relative Peak Area (expressed as % total metabolite peak area generated over 60 minutes)” value in series [10] is reported as 20%; in [11], 9%; in [12], 10%.
For the compound `O=C1CCC(c2ccc(OCCN3CCC(F)CC3)cc2)CC1` [Compound M-182], the “Relative Peak Area (expressed as % total metabolite peak area generated over 60 minutes)” value in [10] turned out to be 27%; in series [11], 13%; in series [12], 11%.
`c1cc(C2CCC3(CC2)OOC2(OO3)C3CC4CC(C3)CC2C4)ccc1CN1CCOCC1` (stereo not shown) [Compound N205]: the Degradation half-life in series [10] (substrate 1 µM) is 0.8 h; in series [10] (substrate 5 µM), 1.45 h; in [11] (substrate 1 µM), 0.25 h; in series [11] (substrate 5 µM) it was 0.333 h; in series [12] (substrate 1 µM, NADPH-dependent) it was 0.567 h; in [12] (substrate 5 µM) it was 0.717 h. Further, the “In vitro CLint” value in series [10] (substrate 1 µM) is listed as 37 µL/min/mg protein; in [10] (substrate 5 µM) it was 20 µL/min/mg protein; in series [11] (substrate 1 µM), 118 µL/min/mg protein; in series [11] (substrate 5 µM), 89 µL/min/mg protein; in [12] (substrate 1 µM), 51 µL/min/mg protein; in series [12] (substrate 5 µM), 41 µL/min/mg protein. Besides, the “Microsome-Predicted EH” value in series [10] (substrate 1 µM) is recorded as 0.44; in series [10] (substrate 5 µM) it was 0.30; in series [11] (substrate 1 µM) it was 0.75; in [11] (substrate 5 µM) it was 0.69; in series [12] (substrate 1 µM), 0.67; in series [12] (substrate 5 µM), 0.62.
Consider `[O-][N+]1(CCOc2ccc(C3CCC4(CC3)OOC3(OO4)C4CC5CC(C4)CC3C5)cc2)CCC(F)CC1` (stereo not shown) [M+16 (IV)], for which the results for the “Relative Peak Area (expressed as % total metabolite peak area generated over 60 minutes)” value in series [10], in series [11] and in series [12] were 9%, 50% and 4%, respectively.
For the compound `OC(c1cc(C(F)(F)F)nc2c(C(F)(F)F)cccc12)C1CCCCN1` (stereo not shown) [Mefloquine, mefloquine], the IC50 in series [1] was 18 nM; in series [2], 12.7 nM; in series [3] (K1, FC27 (CQ S) lab line), 56.2 nM.
As to `CS(=O)(=O)O.c1cc(C2CCC3(CC2)OOC2(OO3)C3CC4CC(C3)CC2C4)ccc1CN1CCOCC1` (stereo not shown) [N205 mesylate], the Solubility in series [13] (0.01 N HCl, media pH 2.0, 37°C, 1 h) was determined as 250 µg/mL; in series [13] (0.01 N HCl, media pH 2.0, 37°C, 4 h), 172 µg/mL; in series [13] (0.01 N HCl, media pH 2.0, 37°C, 6 h), 155 µg/mL; in series [13] (0.1 N HCl, media pH 1.0, 37°C, 1 h), 21.2 µg/mL; in series [13] (0.1 N HCl, media pH 1.0, 37°C, 4 h), 17.2 µg/mL; in series [13] (0.1 N HCl, media pH 1.0, 37°C, 6 h), 16.0 µg/mL. The Solubility in series [13] (FaSSIF blank, 37°C, 1 h) is recorded as less than 0.1 µg/mL; in series [13] (FaSSIF blank, 37°C, 4 h), less than 0.1 µg/mL; in series [13] (FaSSIF blank, 37°C, 6 h), less than 0.1 µg/mL; in [13] (FaSSIF, media pH 6.5, 37°C, 1 h), 24.0 µg/mL; in series [13] (FaSSIF, media pH 6.5, 37°C, 4 h), 18.1 µg/mL; in series [13] (FaSSIF, media pH 6.5, 37°C, 6 h), 26.7 µg/mL. Besides, the Solubility in [13] (FeSSIF blank, 37°C, 1 h) is on record as 2.3 µg/mL; in series [13] (FeSSIF blank, 37°C, 4 h), 0.9 µg/mL; in series [13] (FeSSIF blank, 37°C, 6 h) it was 1.2 µg/mL; in [13] (FeSSIF, media pH 5.0, 37°C, 1 h), 1089 µg/mL; in [13] (FeSSIF, media pH 5.0, 37°C, 4 h) it was 755 µg/mL; in [13] (FeSSIF, media pH 5.0, 37°C, 6 h), 783 µg/mL. In addition, the Solubility in series [13] (Phosphate buffer, media pH 7.4, 37°C, 1 h) is given as less than 0.1 µg/mL; in series [13] (Phosphate buffer, media pH 7.4, 37°C, 4 h) it was less than 0.1 µg/mL; in series [13] (Phosphate buffer, media pH 7.4, 37°C, 6 h) it was less than 0.1 µg/mL.
Take `Clc1ccc2c(N3CCN(CCCN4CCN(c5ccnc6cc(Cl)ccc56)CC4)CC3)ccnc2c1` [Piperaquine, piperaquine]: the IC50 in series [1] was found to be 33.8 nM; in series [2], 35.6 nM; in [3] (K1, FC27 (CQ S) lab line) it was 54.6 nM; in [3] (K1, K1 (CQ R) lab line), 75.5 nM.
In the case of `CCc1nc(N)nc(N)c1-c1ccc(Cl)cc1` [Pyrimethamine, pyrimethamine], in series [4] (setting [14]), the Lag phase is on record as 24 h, the “Log PRR” value is recorded as 3.7, the “PCT 99.9 %” value is on record as 57 h and the Slope is −0.077.

(Values after paper PMC5458052 (Nature Communications, 2017).)
